{
  "source": "patent US20180120298A1",
  "about": "“HEPATOCYTE CULTURE DEVICE CAPABLE OF ENHANCING ACCUMULATION AND EXCRETION OF HEPATIC METABOLITE IN AND INTO BILE CANALICULUS-LIKE STRUCTURE, AND METHOD FOR EVALUATING CANDIDATE COMPOUND SENSITIVE TO EXCRETION INTO BILE OR BLOOD AND HEPATIC METABOLITE OF SAID CANDIDATE COMPOUND USING SAID HEPATOCYTE …” (National Agriculture and Food Reserach Organization, priority 2015, published 2018)",
  "key": {"HepG2 cells [1]": {"system": "HepG2 cells", "procedure": "(§1) HepG2 cells (purchased from RIKEN BioResource Center, RCB1648, Lot.004) suspended in 0.5 mL DMEM culture medium containing 10% FBS, 20 mM HEPES, 100 units/mL penicillin, and 100 μg/mL streptomycin were seeded at 5×10^4 cells/cm^2 and cultured for 2 days in a hydrogel membrane chamber (ad-MED Vitrigel (registered trademark) manufactured by KANTO KAGAKU) to which a detachable silicone-coated PET film is attached. Thereafter, the film on a bottom surface of the hydrogel membrane chamber was detached, the chamber was mounted in a well of a 12-well plate, and culture was carried out for 1 day in a state where the bottom surface is in contact with air (refer to FIG. 2). The 0.5 mL culture medium was exchanged daily after seeding.\n(§2) [1] After removing the culture medium of the hydrogel membrane chamber containing the activated HepG2 cells, 0.5 mL of the culture medium containing 250 vg/mL Fluorescein diacetate (FD) was added, and then culture was carried out at 37° C. for 1 hour in a CO2 incubator (refer to FIG. 4 and Observation A of FIG. 5).\n(§3) [2] After removing the culture medium containing the FD remaining in the chamber, washing was performed twice with 0.5 mL of Hank's Balanced Salt Solution (Hank's balanced salt solution: HBSS), 0.5 mL of the culture medium was added to the chamber, and then culture was carried out at 37° C. for 1 hour in a CO2 incubator (refer to Observation B of FIG. 5).\n(§4) [1] HepG2 cells were seeded to prepare 12 sets of activated hydrogel membrane chambers. For 6 sets, FD was added to the culture medium and cultured by the same procedure as in [1] to [2] of Example 1.\n(§5) [2] Subsequently, after removing the culture medium remaining in the chamber, 0.5 mL of the culture medium was newly added to the chamber. Subsequently, each of three sets was cultured at 37° C. for 1 hour in a CO2 incubator under the following four conditions (refer to FIG. 6).\n(§6) i) A set in which HepG2 cells were co-cultured with TFK-1 cells (FD added) ii) A set in which HepG2 cells were co-cultured with TFK-1 cells (FD not added) iii) A set in which HepG2 cells were homo-cultured in a dish containing only a culture medium (FD added) iv) A set in which HepG2 cells were homo-cultured in a dish containing only a culture medium (FD not added)\n(§7) [3] The culture medium in the chamber and the dish of i) to iv) was recovered and the fluorescence intensities were measured.\n(§8) [2] With respect to the 36 sets of hydrogel membrane chambers in which the cells were seeded and cultured in [1], the culture medium remaining in the chamber was removed, and then 0.5 mL of the culture medium was newly added to the chamber. Subsequently, each of three sets was cultured at 37° C. in a CO2 incubator with culture time of 3 minutes, 30 minutes, and 60 minutes (for each 12 sets) under the following four conditions i) to iv) the same as those of Example 2.\n[3] The culture media in the dishes and in the chambers of i) to iv) were recovered 3 minutes, 30 minutes, and 60 minutes after the start of culture, and the fluorescence intensities were measured. Measurements were made three times respectively, and average values are shown in Table 3 (culture time 3 minutes), Table 4 (culture time 30 minutes), and Table 5 (culture time 60 minutes). In FIG. 7, the term “Co-culture” means the set in which HepG2 cells were co-cultured with TFK-1 cells, and the term “Homo-culture” means the set in which HepG2 cells were homo-cultured in the dish containing the culture medium.\nas §8, with “to the 48 sets of” for “to the 36 sets of”, “30 minutes, 60 minutes, and 180” for “30 minutes, and 60”, “minutes, and 180 minutes (for” for “minutes, and 60 minutes (for”"}, "[2]": {"system": "HepG2 cells co-cultured with TFK-1 cells", "assay": "Fluorescein excretion into chamber and dish, activated HepG2 cells in hydrogel membrane chamber co-cultured with TFK-1 cells", "type": "in vitro ADME, human", "procedure": "as §1, §2, §3\n[3] Subsequently, after removing the culture medium remaining in the chamber, 0.5 mL of the culture medium was newly added to the chamber. Furthermore, TFK-1 cells (purchased from RIKEN BioResource Center, RCB2537, Lot.002) suspended in 2.0 mL of RPMI 1640 culture medium containing 10% FBS, 100 units/mL penicillin, and 100 μg/mL streptomycin were seeded at 7×10^4 cells/cm^2 in a dish having a diameter of 35 mm and cultured for 3 days, and therefore, monolayered cells were prepared in advance. After removing the culture medium in the dish, 0.5 mL of the culture medium for HepG2 cells was added thereto. The chamber was mounted on the monolayer of TFK-1 cells in the dish having a diameter of 35 mm, and then co-culture was carried out at 37° C. for 1 hour in a CO2 incubator (refer to Observation C of FIG. 5).\n[4] The fluorescence intensities of Fluorescein in the culture medium in the chamber and in the dish were measured. In Table 1, FD (−) is a value measured as a background value using a chamber having HepG2 cells cultured without adding FD.\nas §4, §5, §6, §7\n[2] […]"}, "[3]": {"system": "HepG2 cells co-cultured with Normal Human Dermal Fibroblasts (NHDFs)", "assay": "Fluorescein excretion into chamber and dish, activated HepG2 cells co-cultured with NHDFs", "type": "in vitro ADME", "settings": "Example 6; culture time 60 minutes", "procedure": "[1] First, HepG2 cells were seeded to prepare 18 sets of activated hydrogel membrane chambers."}, "[4]": {"system": "HepG2 cells co-cultured with TFK-1 cells", "assay": "Fluorescein excretion into chamber and dish, activated HepG2 cells in hydrogel membrane chamber co-cultured with TFK-1 cells", "type": "in vitro ADME, human", "settings": "Example 4"}, "[5]": {"system": "HepG2 cells co-cultured with TFK-1 cells", "assay": "Fluorescence microscope observation of Fluorescein in cytoplasm and bile canaliculus-like structure, co-culture with TFK-1 cells", "type": "in vitro ADME, human", "procedure": "[3] […] After removing the culture medium in the dish, 0.5 mL of the culture medium for HepG2 cells was added thereto.\n(§9) [1] First, HepG2 cells were seeded to prepare 2 sets of activated hydrogel membrane chambers."}, "HepG2 cells [6]": {"system": "HepG2 cells", "assay": "Fluorescence microscope observation of Fluorescein in cytoplasm and bile canaliculus-like structure, homo-culture", "type": "in vitro ADME", "procedure": "as §9"}},
  "note": "Like-named read-outs stand apart in the source and are kept apart here.",
  "data": [
    {"smiles": "CC(=O)Oc1ccc2c(c1)Oc1cc(OC(C)=O)ccc1C21OC(=O)c2ccccc21", "note": "[FD, Fluorescein diacetate]", "values": [
      {"measurement": "Average value of set, in chamber", "setting": "HepG2 cells [1]; human, 3 min, 250 vg/mL", "result": 507},
      {"measurement": "FD(+)-FD(−) in chamber as percentage of total excreted into chamber and dish", "setting": "HepG2 cells [1]; human, 30 min, 250 vg/mL", "result": "(50%)"},
      {"measurement": "FD(+)-FD(−) in dish as percentage of total excreted into chamber and dish", "setting": "HepG2 cells [1]; human, 30 min, 250 vg/mL", "result": "(50%)"},
      {"measurement": "Average value of set, in chamber", "setting": "HepG2 cells [1]; human, 1 h, 250 vg/mL", "result": 1145},
      {"measurement": "Average value of set, in dish", "setting": "HepG2 cells [1]; human, 1 h, 250 vg/mL", "result": 645},
      {"measurement": "FD(+)-FD(−) in chamber as percentage of total excreted into chamber and dish", "setting": "HepG2 cells [1]; human, 1 h, 250 vg/mL", "result": "(90%)"},
      {"measurement": "FD(+)-FD(−) in dish as percentage of total excreted into chamber and dish", "setting": "HepG2 cells [1]; human, 1 h, 250 vg/mL", "result": "(10%)"},
      {"measurement": "FD(+)-FD(−), in chamber", "setting": "HepG2 cells [1]; human, 1 h, 250 vg/mL", "result": 549},
      {"measurement": "FD(+)-FD(−), in dish", "setting": "HepG2 cells [1]; human, 1 h, 250 vg/mL", "result": 60},
      {"measurement": "Average value of set, in chamber", "setting": "HepG2 cells [1]; human, 180 min, 250 vg/mL", "result": 579},
      {"measurement": "Average value of set, in dish", "setting": "HepG2 cells [1]; human, 180 min, 250 vg/mL", "result": 515},
      {"measurement": "FD(+)-FD(−) in chamber as percentage of total excreted into chamber and dish", "setting": "HepG2 cells [1]; human, 180 min, 250 vg/mL", "result": "(71%)"},
      {"measurement": "FD(+)-FD(−) in dish as percentage of total excreted into chamber and dish", "setting": "HepG2 cells [1]; human, 180 min, 250 vg/mL", "result": "(29%)"},
      {"measurement": "FD(+)-FD(−), in chamber", "setting": "HepG2 cells [1]; human, 180 min, 250 vg/mL", "result": 88},
      {"measurement": "FD(+)-FD(−), in dish", "setting": "HepG2 cells [1]; human, 180 min, 250 vg/mL", "result": 36}
    ]},
    {"smiles": "O=C1OC2(c3ccc(O)cc3Oc3cc(O)ccc32)c2ccccc21", "note": "[Fluorescein]", "values": [
      {"measurement": "rate of the fluorescence intensities of Fluorescein excreted into the dish (lower side) over time", "setting": "HepG2 cells [1]", "result": "decreased over time"},
      {"measurement": "culture time beyond which total excreted Fluorescein fluorescence becomes almost a plateau state", "setting": "HepG2 cells [1]; human, 250 vg/mL", "result": "exceeds 30 minutes"},
      {"measurement": "total of the fluorescence intensities of Fluorescein excreted into the chamber and into the dish", "setting": "HepG2 cells [1]; human, 1 h, 250 vg/mL", "result": 609},
      {"measurement": "amount of Fluorescein excreted into the dish larger in co-culture with TFK-1 cells than in homo-culture (rate of excretion to the lower side)", "setting": "[2]; Example 2, 1 hour", "result": 4, "unit": "%"},
      {"measurement": "increase of the total amount of excreted Fluorescein, co-culture with TFK-1 cells vs homo-culture", "setting": "[2]; Example 2, 1 hour", "result": "about 26%"},
      {"measurement": "total of the fluorescence intensities of Fluorescein excreted into the chamber and into the dish", "setting": "[2]; Example 2, co-cultured with TFK-1 cells, 1 hour", "result": 770},
      {"measurement": "rate of the fluorescence intensities of Fluorescein excreted into the dish (lower side) over time", "setting": "[2]; Example 3, co-culture with TFK-1 cells", "result": "increased"},
      {"measurement": "total of the fluorescence intensities of excreted Fluorescein, co-culture with TFK-1 cells compared with homo-culture", "setting": "[2]; Example 3, culture time 3, 30 and 60 minutes", "result": "larger"},
      {"measurement": "amount of Fluorescein excreted into the dish smaller in co-culture with NHDFs than in co-culture with TFK-1 cells", "setting": "[3]", "result": 54, "unit": "%"},
      {"measurement": "total of the fluorescence intensities of Fluorescein excreted into chamber and dish, co-culture with NHDFs compared with homo-culture", "setting": "[3]", "result": "almost the same"},
      {"measurement": "total of the fluorescence intensities of excreted Fluorescein, co-culture with TFK-1 cells compared with homo-culture", "setting": "[4]; at any time of the culture time (3 to 180 minutes)", "result": "larger"},
      {"measurement": "culture time beyond which total excreted Fluorescein fluorescence becomes almost a plateau state", "setting": "[4]; co-culture with TFK-1 cells", "result": "exceeds 60 minutes"},
      {"measurement": "rate of the fluorescence intensities of Fluorescein excreted into the dish (lower side) over time", "setting": "[4]; co-culture with TFK-1 cells", "result": "increased"},
      {"measurement": "amount of Fluorescein excreted into the dish (lower side) larger in co-culture with TFK-1 cells than in homo-culture (rate of excretion to the lower side)", "setting": "[4]; culture time 180 minutes", "result": 36, "unit": "%"},
      {"measurement": "Fluorescein accumulated in the bile canaliculus-like structure after co-culturing with TFK-1 cells", "setting": "[5]; Example 1, Observations B and C of FIG. 5, co-culture 1 hour", "result": "decreased"},
      {"measurement": "time within which reduction in the amount of Fluorescein accumulated in the bile canaliculus-like structure was confirmed", "setting": "[5]; Example 5, co-culture with TFK-1 cells", "result": "≤ 1", "unit": "h"},
      {"measurement": "reduction in the green fluorescence of Fluorescein", "setting": "[5]; Example 5, co-culture, after 1 hour of excretion", "result": "significantly noticeable"},
      {"measurement": "green fluorescence of Fluorescein", "setting": "[5]; Example 5, co-culture, after 3 hours of excretion", "result": "not possible to confirm"},
      {"measurement": "green fluorescence of Fluorescein", "setting": "[5]; Example 5, co-culture, after 23 hours of excretion", "result": "not possible to confirm"},
      {"measurement": "time needed to reduce the amount of Fluorescein accumulated in the bile canaliculus-like structure", "setting": "HepG2 cells [6]; Example 5", "result": "≥ 1", "unit": "days"},
      {"measurement": "reduction in the green fluorescence of Fluorescein", "setting": "HepG2 cells [6]; Example 5, after 1 hour of excretion", "result": "not noticeable"},
      {"measurement": "reduction in the green fluorescence of Fluorescein", "setting": "HepG2 cells [6]; Example 5, after 3 hours of excretion", "result": "significantly noticeable"},
      {"measurement": "green fluorescence of Fluorescein", "setting": "HepG2 cells [6]; Example 5, after 23 hours of excretion", "result": "fluorescence in the bile canaliculus-like structure remained"}
    ]}
  ]
}
